Laboratory results taken from PMC10202811 (Nature Medicine, 2023).
Where two headings read alike, the source gives them in different places.

Test: Plasma pharmacokinetics of lorlatinib at steady state (LC-MS/MS, non-compartmental analysis)
Type: in vivo, human
Conditions: for Lambda_z: in h-1 (unit assumed); for Tlag: unit assumed; for Cmax: read-out: Cmax; for AUC: read-out: AUC_TAU
Description: Lorlatinib was isolated from human plasma by a liquid-iquid extraction procedure. […] A linear-log trapezoidal method was used [NT] A best-fit method was used to estimate terminal elimination and to extrapolate any plasma concentration versus time profiles to compute [NT].

[1] = Cycle 1 Day 15, Cohort A1, 115 mg/m2 per dose, individual patients
[2] = Cycle 1 Day 15, Cohort A1, 115 mg/m2 per dose, individual patients, in h (unit assumed)
[3] = Cycle 1 Day 15, Cohort A1, 115 mg/m2 per dose, individual patients, in ng/mL
[4] = Cycle 1 Day 15, Cohort A2, 100 mg per dose, individual patients
[5] = Cycle 1 Day 15, Cohort A2, 150 mg per dose, individual patients
[6] = Cycle 1 Day 15, Cohort A2, 150 mg per dose, individual patients, in h (unit assumed)
[7] = Cycle 1 Day 15, patient N0773, Cohort B2, 115 mg/m2 per dose, Dose 75
[8] = Cycle 1 Day 15, patient N0773, Cohort B2, 115 mg/m2 per dose, Dose 75, in h (unit assumed)
[9] = human, in vivo, 115 mg/m2, Cohort A1, 115 mg/m2 per dose, C1D15, Geometric Mean, N 6
[10] = human, in vivo, 115 mg/m2, Cohort A1, 115 mg/m2 per dose, C1D15, Median, N 6
[11] = human, in vivo, 115 mg/m2, Cohort B2, 115 mg/m2 per dose, C1D15, Geometric Mean, N 6
[12] = human, in vivo, 115 mg/m2, Cohort B2, 115 mg/m2 per dose, C1D15, Median, N 6
[13] = human, in vivo, 115 mg/m2, Cycle 1 Day 1, Cohort B2, 115 mg/m2 per dose

C[C@H]1Oc2cc(cnc2N)-c2c(nn(C)c2C#N)CN(C)C(=O)c2ccc(F)cc21 [Lorlatinib, (10R)-7-amino-12-fluoro-2,10,16-trimethyl-15-oxo-10,15,16,17-tetrahydro-2H-8,4-(metheno)pyrazolo[4,3-h][2,5,11]-benzoxadiazacyclotetradecine-3-carbonitrile]
Swing [1]: 8.184 | Swing_Tau [1]: 8.184 | Tlast [1]: 24 h | Vz_F [1]: 274.2 | HL_Lambda_z [2]: 12 | Tmin [2]: 0 | Lambda_z [1]: 0.05778 | Cavg [3]: 341.9 | Clast [3]: 147 | Clast_pred [3]: 144.8 | Cmin [3]: 147 | Ctau [3]: 147 | Tlag [1]: 0 h | AUC_TAU_%Extrap [4]: 0% | Tlast [4]: 24 h | Tmax (Cycle 1 Day 15, Cohort A2, 100 mg per dose, individual patients, in h (unit assumed)): 2 | Tmax (Cycle 1 Day 15, Cohort A2, 100 mg per dose, individual patients, listed as lorlatinib, in h (unit assumed)): 2 | Tlag [4]: 0 h | AUC_TAU_%Extrap [5]: 0% | Tlast [5]: 24 h | MRTINF_obs [6]: 20.95 | MRTINF_pred [6]: 20.85 | Tmax [6]: 2 | Tmin [6]: 0 | Clast_pred (Cycle 1 Day 15, Cohort A2, 150 mg per dose, individual patients, in ng/mL): 129.9 | AUCINF_pred (Cycle 1 Day 15, Cohort A2, 150 mg per dose, individual patients, in ng·h/mL (unit assumed)): 8874 | Tlag [5]: 0 h | AUMC_TAU [7]: 28139.0694 | Accumulation_Index [7]: 1.002 | CLss_F [7]: 10.79 | Cmax_D [7]: 23.73 | Fluctuation% [7]: 464.7 | Fluctuation%_Tau [7]: 613.5 | Swing [7]: 3.101 | Swing_Tau [7]: 559.2 | Tlast [7]: 6 h | Vz_F [7]: 40.19 | HL_Lambda_z [8]: 2.582 | Tmin [8]: 6 | Lambda_z [7]: 0.2684 | Cavg (Cycle 1 Day 15, patient N0773, Cohort B2, 115 mg/m2 per dose, Dose 75, in ng/mL): 289.6 | Tlag [7]: 0 h | Tmax (human, in vivo, 60 mg/m2, Cohort A1, 60 mg/m2 per dose, C1D15, Geometric Mean, N 3, read-out: Tmax): 1.59 h | Cmax (human, in vivo, 75 mg/m2, Cycle 1 Day 1, Cohort A1, 75 mg/m2 per dose, individual patients): 467 ng/mL | AUC [9]: 8640 ng·h/mL | Cmax [9]: 1210 ng/mL | Tmax (human, in vivo, 115 mg/m2, Cohort A1, 115 mg/m2 per dose, C1D15, Geometric Mean, N 6, read-out: Tmax): 1.59 h | AUC [10]: 8570 ng·h/mL | Cmax [10]: 1280 ng/mL | Tmax (human, in vivo, 115 mg/m2, Cohort A1, 115 mg/m2 per dose, C1D15, Median, N 6, read-out: Tmax): 1.5 h | AUC [11]: 7950 ng·h/mL | Cmax [11]: 1460 ng/mL | Tmax (human, in vivo, 115 mg/m2, Cohort B2, 115 mg/m2 per dose, C1D15, Geometric Mean, N 6, read-out: Tmax): 1.12 h | AUC [12]: 6940 ng·h/mL | Cmax [12]: 1560 ng/mL | Tmax (human, in vivo, 115 mg/m2, Cohort B2, 115 mg/m2 per dose, C1D15, Median, N 6, read-out: Tmax): 1 h | MRT last (human, in vivo, 115 mg/m2, Cycle 1 Day 1, Cohort A1, 115 mg/m2 per dose): 11.1 h | Tmax (human, in vivo, 115 mg/m2, Cycle 1 Day 1, Cohort A1, 115 mg/m2 per dose, read-out: Tmax): 1 h | AUC(0-t) [13]: 17700 ng·h/mL | MRT last [13]: 8.5 h
